Consider 36 compounds from US20190117670A1, “LONGER-ACTING PROGESTIN PRODRUG CONTRACEPTIVES” (Evestra, Inc., priority 2017, published 2019).

The subject of the first data set is cycling rats of Sprague-Dawley strain. The experiment in a line: Estrous suppression assay (long term injectable contraceptive), anti-ovulatory activity in female rat model. To be noted: 2 mg/rat, single s.c. injection of milled suspension, adult female rats, vaginal smear until cycling re-established. Type of data set: in vivo. As for the experimental part: A stainless steel grinding bowl with a lid and seal along with three 10 mm stainless steel balls were used to formulate suspensions for injection. The compounds were weighed and added to the grinding bowl and steel balls. 1.5 mL of formulation vehicle was added to the grinding bowl, via pipette. The milling conditions used as listed: 20 minutes, 20 Hz. After milling, the suspension was transferred to a volumetric flask. Formulation vehicle was used to dilute the milled suspension to produce the desired injection dose.
Protocol: Testing Long Term Injectable Contraceptive
Adult female rats (180-200 g body weight) were used for the study (adapted over 1 week before starting the study).
For each compound, two doses were tested (2 and 4 mg/rat).
Long acting properties of each preparation had been determined in an estrous suppression assay using virgin, mature (180-200 g) cycling rats of Sprague-Dawley strain. Upon receipt the animals were smeared daily (procedure described as below) for cyclicity and those who were showing two consecutive cycles were used for the study. Each animal was injected subcutaneously (s.c) with 0.5 ml of the test preparation (in the vehicle as described above) on the same day regardless of the stage of the cycle. Each compound was initially tested in 6 rats. Everyday excluding weekend, smears were taken starting on the day after injection and continued until such time that cornification of vaginal epithelium was observed and cycling was re-established (Bialy G, Blye R P, Enever R P, Naqvi R H, Lindberg M C. Long-acting contraceptive agents: structure activity relationships in a series of norethisterone and levonorgestrel esters. Steroids 1983, v 41, p 361).
Epithelium and lamina propria of the vagina undergo characteristic changes during the cycle. This cyclical changes was used in rodents to stage cycle diagnosis (1). During the cycle, it comes to a complete replacement of the epithelium. In order to determine the stage of the cycle, vaginal solution/mucus was collected as follows. The rat was fixed with one hand. With the other hand, a small moistened cotton swab (2-3 mm diameter) was inserted into the vagina and removed by gently rotating cell material. This was done with caution, since excessive irritation could induce a pseudopregnancy stage in animals. A drop of water on a slide was applied and dabbed the cotton swab in it. The smear was assessed under the microscope (Nikon Eclipse Ti, Magnification: 10×0.25) (Nelson J F, Felicio L S, Randall P K, Sims C, Finch C E. A longitudinal study of estrous cyclicity in aging C57BL/6J mice: I. Cycle frequency, length and vaginal cytology. Biol Reprod. 1982 September; 27(2):327-39).
The smear of diestrous is characterized by some neutrophils and a few small degenerated, irregularly shaped epithelial cells.
The microscopic image of the smear contains a moderate number of epithelial cells with large nuclei, which are usually visible as cell clusters.
The lamina propria leukocytes migrate into the epithelium. The smear is characterized by many big horny epithelial cells.
In metestrous stage, masses of polymorphonuclear cells with some cornified epithelial cells in the smear will become visible.
Take `C[C@H](O)C(=O)[C@@]1(C)CCC2C3CCC4=CC(=O)CCC4=C3CC[C@@]21C` (some centres unmarked) [EC213 TMG, reference compound]: the “Rat Anti-ovulatory Activity Days +/− 2” value is 19 days.
Take `C#C[C@]1(OC(=O)CCC)CCC2C3CCC4=CC(=O)CCC4C3CC[C@@]21CC` (some centres unmarked) [EC600 LB, Levonorgestrel butanoate, reference compound]: the “Rat Anti-ovulatory Activity Days +/− 2” value stood at 33 days.
As for `C#C[C@]1(OC(=O)COc2cccc(S(N)(=O)=O)c2)CCC2C3CCC4=CC(=O)CCC4C3CC[C@@]21CC` (some centres unmarked) [EC601], the “Rat Anti-ovulatory Activity Days +/− 2” value came out at 10 days.
As for `C#C[C@]1(OC(=O)COc2ccc(S(N)(=O)=O)cc2)CCC2C3CCC4=CC(=O)CCC4C3CC[C@@]21CC` (some centres unmarked) [EC624], the “Rat Anti-ovulatory Activity Days +/− 2” value stood at 20.5 days.
As for `C#C[C@]1(OC(=O)COc2ccccc2)CCC2C3CCC4=CC(=O)CCC4C3CC[C@@]21CC` (some centres unmarked) [EC625], the “Rat Anti-ovulatory Activity Days +/− 2” value worked out at 43 days.
Take `C#C[C@]1(OC(=O)COc2ccc(Cl)cc2)CCC2C3CCC4=CC(=O)CCC4C3CC[C@@]21CC` (some centres unmarked) [EC631]: the “Rat Anti-ovulatory Activity Days +/− 2” value is 33.5 days.
For the compound `C#C[C@]1(OC(=O)COc2ccccc2C)CCC2C3CCC4=CC(=O)CCC4C3CC[C@@]21CC` (some centres unmarked) [EC632], the “Rat Anti-ovulatory Activity Days +/− 2” value stood at 8.5 days.
Take `C#C[C@]1(OC(=O)COc2ccccc2Cl)CCC2C3CCC4=CC(=O)CCC4C3CC[C@@]21CC` (some centres unmarked) [EC633]: the “Rat Anti-ovulatory Activity Days +/− 2” value stood at 16.3 days.
The same measure, in the same setting: under `C#C[C@]1(OC(=O)COc2ccc(OC)cc2)CCC2C3CCC4=CC(=O)CCC4C3CC[C@@]21CC` (some centres unmarked) [EC634] stands 30 days; under `C#C[C@]1(OC(=O)COc2ccccc2OC)CCC2C3CCC4=CC(=O)CCC4C3CC[C@@]21CC` (some centres unmarked) [EC635], 13 days; under `C#C[C@]1(OC(=O)COc2cccc(OC)c2)CCC2C3CCC4=CC(=O)CCC4C3CC[C@@]21CC` (some centres unmarked) [EC636], 13 days.
Still for that read-out and setting: under `C#C[C@]1(OC(=O)[C@H](C)Oc2ccccc2)CCC2C3CCC4=CC(=O)CCC4C3CC[C@@]21CC` (some centres unmarked) [EC638] stands 8 days.
In the case of `C#C[C@]1(OC(=O)COc2cccc(F)c2)CCC2C3CCC4=CC(=O)CCC4C3CC[C@@]21CC` (some centres unmarked) [EC639], the “Rat Anti-ovulatory Activity Days +/− 2” value amounted to 31 days.
On to `C#C[C@]1(OC(=O)COc2ccc(F)cc2)CCC2C3CCC4=CC(=O)CCC4C3CC[C@@]21CC` (some centres unmarked) [EC640], for which the “Rat Anti-ovulatory Activity Days +/− 2” value is 31 days.
Turning to `C#C[C@]1(OC(=O)COc2cccnc2)CCC2C3CCC4=CC(=O)CCC4C3CC[C@@]21CC` (some centres unmarked) [EC641], the “Rat Anti-ovulatory Activity Days +/− 2” value was found to be 23 days.
Take `C#C[C@]1(OC(=O)COc2ccccc2F)CCC2C3CCC4=CC(=O)CCC4C3CC[C@@]21CC` (some centres unmarked) [EC642]: the “Rat Anti-ovulatory Activity Days +/− 2” value worked out at 41 days.
With `C#C[C@]1(OC(=O)CCc2ccccc2OC)CCC2C3CCC4=CC(=O)CCC4C3CC[C@@]21CC` (some centres unmarked) [EC643], the “Rat Anti-ovulatory Activity Days +/− 2” value came out at 3 days.
`C#C[C@]1(OC(=O)COc2ccc3c(c2)OCO3)CCC2C3CCC4=CC(=O)CCC4C3CC[C@@]21CC` (some centres unmarked) [EC644]: the “Rat Anti-ovulatory Activity Days +/− 2” value turned out to be 20 days.
Regarding `C#C[C@]1(OC(=O)COc2ccc(S(C)(=O)=O)cc2)CCC2C3CCC4=CC(=O)CCC4C3CC[C@@]21CC` (some centres unmarked) [EC645], the “Rat Anti-ovulatory Activity Days +/− 2” value was determined as 31 days.
With `C#C[C@]1(OC(=O)CNc2ccccc2)CCC2C3CCC4=CC(=O)CCC4C3CC[C@@]21CC` (some centres unmarked) [EC646], the “Rat Anti-ovulatory Activity Days +/− 2” value came out at 13 days.
Same read-out and setting: under `C#C[C@]1(OC(=O)CSc2ccccc2)CCC2C3CCC4=CC(=O)CCC4C3CC[C@@]21CC` (some centres unmarked) [EC647] stands 20 days; under `C#C[C@]1(OC(=O)COc2ccc(S(N)(=O)=O)cc2Cl)CCC2C3CCC4=CC(=O)CCC4C3CC[C@@]21CC` (some centres unmarked) [EC648], 18 days.
Still for that read-out and setting: under `C#C[C@]1(OC(=O)COc2ccc(S(N)(=O)=O)cc2C)CCC2C3CCC4=CC(=O)CCC4C3CC[C@@]21CC` (some centres unmarked) [EC649] stands 18.5 days; under `C#C[C@]1(OC(=O)COc2ccc(S(N)(=O)=O)c(Cl)c2)CCC2C3CCC4=CC(=O)CCC4C3CC[C@@]21CC` (some centres unmarked) [EC650], 18.5 days.
Still for that read-out and setting: the result for `C#C[C@]1(OC(=O)COc2ccccc2)CCC2C3CCC4=CC(=O)CCC4C3C(=C)C[C@@]21CC` (some centres unmarked) [EC651] reads 52 days; that for `C#C[C@]1(OC(=O)COc2cc(C)on2)CCC2C3CCC4=CC(=O)CCC4C3CC[C@@]21CC` (some centres unmarked) [EC652], 27 days; that for `C#C[C@]1(OC(=O)COc2ccc(S(N)(=O)=O)c(F)c2)CCC2C3CCC4=CC(=O)CCC4C3CC[C@@]21CC` (some centres unmarked) [EC653], 15 days.
Turning to `C#C[C@]1(OC(=O)COc2cccc(-c3ccccc3)c2)CCC2C3CCC4=CC(=O)CCC4C3CC[C@@]21CC` (some centres unmarked) [EC654], the “Rat Anti-ovulatory Activity Days +/− 2” value is 8 days.
In the case of `C#C[C@]1(OC(=O)COc2ccc(-c3ccccc3)cc2)CCC2C3CCC4=CC(=O)CCC4C3CC[C@@]21CC` (some centres unmarked) [EC655], the “Rat Anti-ovulatory Activity Days +/− 2” value worked out at 37 days.
Turning to `C#C[C@]1(OC(=O)COc2ccc(C#N)cc2)CCC2C3CCC4=CC(=O)CCC4C3CC[C@@]21CC` (some centres unmarked) [EC658], the “Rat Anti-ovulatory Activity Days +/− 2” value is 29 days.
Same read-out and setting: under `CC(=O)O[C@]1(C(C)=O)CC[C@H]2[C@@H]3C[C@H](C)C4=CC(=O)CC[C@]4(C)[C@H]3CC[C@@]21C` [MPA, medroxyprogesterone acetate, reference compound] stands 22 days.

The same data set, now with this note: 4 mg/rat, single s.c. injection of milled suspension, adult female rats, vaginal smear until cycling re-established.
For the compound `C#C[C@]1(OC(=O)COc2cccc(S(N)(=O)=O)c2)CCC2C3CCC4=CC(=O)CCC4C3CC[C@@]21CC` (some centres unmarked) [EC601], the “Rat Anti-ovulatory Activity Days +/− 2” value was 34 days.
As to `C#C[C@]1(OC(=O)COc2ccccc2)CCC2C3CCC4=CC(=O)CCC4C3CC[C@@]21CC` (some centres unmarked) [EC625], the “Rat Anti-ovulatory Activity Days +/− 2” value came to 69 days.
With `C#C[C@]1(OC(=O)CCc2ccccc2)CCC2C3CCC4=CC(=O)CCC4C3CC[C@@]21CC` (some centres unmarked) [EC626], the “Rat Anti-ovulatory Activity Days +/− 2” value turned out to be 20 days.
Still for that read-out and setting: under `C#C[C@]1(OC(=O)/C=C/c2ccccc2)CCC2C3CCC4=CC(=O)CCC4C3CC[C@@]21CC` (some centres unmarked) [EC627] stands 6 days.
As to `C#C[C@]1(OC(=O)COc2cccc(C)c2)CCC2C3CCC4=CC(=O)CCC4C3CC[C@@]21CC` (some centres unmarked) [EC628], the “Rat Anti-ovulatory Activity Days +/− 2” value was determined as 36 days.
As to `C#C[C@]1(OC(=O)COc2ccc(C)cc2)CCC2C3CCC4=CC(=O)CCC4C3CC[C@@]21CC` (some centres unmarked) [EC629], the “Rat Anti-ovulatory Activity Days +/− 2” value worked out at 44.8 days.
Still for that read-out and setting: under `C#C[C@]1(OC(=O)COc2cccc(Cl)c2)CCC2C3CCC4=CC(=O)CCC4C3CC[C@@]21CC` (some centres unmarked) [EC630] stands 46.5 days.
Same read-out and setting: the result for `CC(=O)O[C@]1(C(C)=O)CC[C@H]2[C@@H]3C[C@H](C)C4=CC(=O)CC[C@]4(C)[C@H]3CC[C@@]21C` [MPA, medroxyprogesterone acetate, reference compound] reads 40 days.

Tested on in the next data set: not given
Experiment: not given
To be noted: cited from earlier work.
`C#C[C@]1(OC(=O)CCC)CCC2C3CCC4=CC(=O)CCC4C3CC[C@@]21CC` (some centres unmarked) [EC600 LB, Levonorgestrel butanoate, reference compound]: the “contraceptive effect in the clinic” value was “failed in the clinic to reach a contraceptive effect for up to 6 month”.

Tested on in a further data set: not given
Experiment: not given
The following applies: 3 month injectable product Depo Provera; cited from earlier work.
For the compound `CC(=O)O[C@]1(C(C)=O)CC[C@H]2[C@@H]3C[C@H](C)C4=CC(=O)CC[C@]4(C)[C@H]3CC[C@@]21C` [MPA, medroxyprogesterone acetate, reference compound], the undesirable effects result was “increase of insulin levels, reduction of bone mass density, weight gain and enhanced risks for HIV infections”.
